# Test system: iPSC-derived cortical neurons
# Type: cell-based
# [1] = responders vs non-responders after 10 μM Bupropion, p<0.01
# [2] = responders vs non-responders, 10 μM Bupropion, NS
# [3] = responders vs non-responders, 10 μM Bupropion, p<0.01
compound,measurement,setting,value
"CC(NC(C)(C)C)C(=O)c1cccc(Cl)c1 (stereo not drawn) [Bupropion, 3-Chloro-N-tert-butyl-β-keto-α-methylphenethylamin]",logFC PLCH2,[1],−1.051
same,logFC PLD5,[1],−1.909
same,logFC PLEKHD1,[1],−3.283
same,logFC PLPP4,[1],−0.9989
same,logFC PODN,[1],−1.12
same,logFC POLR2J3,[1],−0.756
same,logFC POU4F1,[1],−1.728
same,logFC PRCD,[1],−1.032
same,logFC PRPH,[1],−2.033
same,logFC PRSS33,[1],−1.593
same,logFC PSD4,[1],−0.7234
same,logFC PSMB8,[1],−1.14
same,logFC PSMB9,[1],−1.682
same,logFC PTGDS,[1],−1.612
same,logFC PTGER2,[1],−2.59
same,logFC RAB42,[1],−0.5093
same,logFC RBMS3,[1],−0.8065
same,logFC RBP1,[1],−0.6676
same,logFC RPH3A,[1],−2.057
same,logFC RSAD2,[1],−1.646
same,logFC S100B,[1],−1.744
same,logFC SAMD9,[1],−1.373
same,logFC SAMD9L,[1],−1.954
same,logFC SH3TC2,[1],−1.437
same,logFC SKOR2,[1],−2.986
same,logFC SLC2A1,[1],−0.6362
same,logFC SLC4A4,[1],−1.35
same,logFC SLC38A3,[1],−0.8613
same,logFC SMPD1,[1],−0.5833
same,logFC SST,[1],−1.012
same,logFC SUN2,[1],−0.4523
same,logFC SUSD1,[1],−0.629
same,logFC SYNC,[1],−1.688
same,logFC TAF1C,[1],−0.387
same,logFC TAP1,[1],−0.8369
same,logFC TAP2,[1],−0.8068
same,logFC TBC1D2,[1],−0.6958
same,logFC TF,[1],−1.257
same,logFC THBS2,[1],−1.7
same,logFC TLR6,[1],−1.138
same,logFC TLX1,[1],−2.764
same,logFC TLX3,[1],−1.593
same,logFC TMC3,[1],−2.021
same,logFC TMEM175,[1],−0.5016
same,logFC TMEM176A,[1],−1.203
same,logFC TMEM176B,[1],−1.184
same,logFC TNFRSF14,[1],−1.091
same,logFC TRAF1,[1],−0.9274
same,logFC TREM1,[1],−2.481
same,logFC TRIM8,[1],−0.2802
same,logFC TRMT9B,[1],−0.6888
same,logFC TRPV2,[1],−1.594
same,logFC TSHZ3,[1],−1.109
same,logFC USH1C,[1],−1.858
same,logFC USP18,[1],−0.9659
same,logFC VLDLR,[1],−0.4024
same,logFC VSTM2B,[1],−1.079
same,logFC ZFPM1,[1],−0.5127
same,logFC ZNF575,[1],−0.87
same,logFC ADAMTS9 expression,[2],0.9659
same,logFC ADGRE5 expression,[2],0.9432
same,logFC AMMECR1 expression,[2],0.7173
same,logFC ANKRD1 expression,[2],2.712
same,logFC ANKRD18A expression,[2],1.155
same,logFC ANKRD33B expression,[2],0.8016
same,logFC ANLN expression,[2],0.911
same,logFC AP3B1 expression,[2],0.7614
same,logFC ARHGAP10 expression,[2],1.24
same,logFC ARHGAP11A expression,[2],0.7121
same,logFC ARHGAP19 expression,[2],0.5865
same,logFC ARL11 expression,[2],0.8189
same,logFC BAX expression,[2],0.4774
same,logFC BUB1 expression,[2],0.6384
same,logFC C18orf54 expression,[2],0.7328
same,logFC CD53 expression,[2],1.712
same,logFC CDCA7 expression,[2],0.949
same,logFC CDK1 expression,[2],0.9851
same,logFC CDV3 expression,[2],0.7482
same,logFC CENPA expression,[2],1.025
same,logFC CENPH expression,[2],0.8278
same,logFC CENPW expression,[2],0.7956
same,logFC CHEK2 expression,[2],0.7669
same,logFC CHMP4C expression,[2],0.6773
same,logFC CHTF18 expression,[2],0.4356
same,logFC CKS1B expression,[2],0.5869
same,logFC CKS2 expression,[2],0.7778
same,logFC CNN1 expression,[2],0.8796
same,logFC COL17A1 expression,[2],1.832
same,logFC CPVL expression,[2],0.8555
same,logFC CRYZ expression,[2],1.044
same,logFC CSF3R expression,[2],2.81
same,logFC DAG1 expression,[2],0.5339
same,logFC DCP2 expression,[2],0.7702
same,logFC DEPDC1 expression,[2],1.005
same,logFC DHRS2 expression,[2],3.271
same,logFC DIAPH3 expression,[2],0.9363
same,logFC DLGAP5 expression,[2],0.8304
same,logFC DLX4 expression,[2],1.485
same,logFC DLX5 expression,[2],2.138
same,logFC DNMBP expression,[2],0.5323
same,logFC DSG2 expression,[2],0.746
same,logFC DSG3 expression,[2],2.297
same,logFC DSP expression,[2],1.327
same,logFC DUSP6 expression,[2],0.9289
same,logFC EDA2R expression,[2],0.569
same,logFC EFHD1 expression,[2],0.872
same,logFC EGLN3 expression,[2],1.216
same,logFC ELK3 expression,[2],0.9378
same,logFC EME1 expression,[2],0.7814
same,logFC EPHA7 expression,[2],1.592
same,logFC ERLIN1 expression,[2],0.5945
same,logFC ESAM expression,[2],1.688
same,logFC EXOC3L2 expression,[2],1.012
same,logFC FAM72A expression,[2],1.123
same,logFC FAM72B expression,[2],0.9318
same,logFC FAS expression,[2],1.079
same,logFC FBXO5 expression,[2],0.7533
same,logFC FGF23 expression,[2],1.468
same,logFC FNDC1 expression,[2],0.9667
same,logFC FOSL1 expression,[2],1.137
same,logFC FOXL1 expression,[2],1.191
same,logFC FUT10 expression,[2],0.6404
same,logFC GNPNAT1 expression,[2],1.06
same,logFC GTF2H3 expression,[2],0.8228
same,logFC HACD2 expression,[2],0.8389
same,logFC HAT1 expression,[2],0.7547
same,logFC HDAC1 expression,[2],0.4991
same,logFC HHIPL2 expression,[2],1.368
same,logFC HIBADH expression,[2],0.5725
same,logFC HMGB2 expression,[2],0.5953
same,logFC HMMR expression,[2],0.9939
same,logFC HNMT expression,[2],1.877
same,logFC IMPACT expression,[2],0.7315
same,logFC INPP5D expression,[2],1.208
same,logFC IQGAP3 expression,[2],0.6692
same,logFC ITGA2 expression,[2],0.6822
same,logFC KIAA1217 expression,[2],0.8875
same,logFC KIF2C expression,[2],0.6989
same,logFC KIF11 expression,[2],0.7863
same,logFC KIF14 expression,[2],0.7995
same,logFC KIF20B expression,[2],0.8251
same,logFC KIF23 expression,[2],0.7114
same,logFC KRT8 expression,[2],1.26
same,logFC KRT18 expression,[2],1.596
same,logFC L2HGDH expression,[2],0.7542
same,logFC LAMC1 expression,[2],0.8644
same,logFC LPP expression,[2],0.7521
same,logFC LRP4 expression,[2],1.051
same,logFC LRRC15 expression,[2],0.6532
same,logFC LTA4H expression,[2],0.6494
same,logFC MAD2L1 expression,[2],0.8373
same,logFC MAN2A1 expression,[2],0.8316
same,logFC MATN3 expression,[2],0.9618
same,logFC MDM2 expression,[2],0.6788
same,logFC MELK expression,[2],0.849
same,logFC MGST1 expression,[2],0.9354
same,logFC MICB expression,[2],0.9474
same,logFC MSX2 expression,[2],1.687
same,logFC MT1E expression,[2],0.1751
same,logFC MTBP expression,[2],0.7803
same,logFC MUC4 expression,[2],0.8705
same,logFC NDC1 expression,[2],0.8188
same,logFC NDC80 expression,[2],0.8291
same,logFC NEMP1 expression,[2],0.791
same,logFC NGF expression,[2],0.7928
same,logFC NLRP1 expression,[2],1.235
same,logFC NOSTRIN expression,[2],1.169
same,logFC NPPB expression,[2],1.671
same,logFC NUF2 expression,[2],0.7214
same,logFC NUP37 expression,[2],0.7592
same,logFC NUPR1 expression,[2],1.745
same,logFC ORC6 expression,[2],0.8019
same,logFC PADI1 expression,[2],0.9659
same,logFC PGM2 expression,[2],0.8787
same,logFC PLAU expression,[2],2.302
same,logFC PMP22 expression,[2],1.525
same,logFC POLQ expression,[2],0.7494
same,logFC PPP1R13L expression,[2],0.8159
same,logFC PRDX6 expression,[2],0.5898
same,logFC PROCR expression,[2],1.393
same,logFC PRR11 expression,[2],0.6089
same,logFC PTGR1 expression,[2],0.6824
same,logFC PYGL expression,[2],0.8577
same,logFC RAD51AP1 expression,[2],1.085
same,logFC RBMS1 expression,[2],0.7861
same,logFC RPL22L1 expression,[2],1.141
same,logFC RPS27L expression,[2],0.7459
same,logFC RREB1 expression,[2],0.5116
same,logFC RRM2B expression,[2],0.7867
same,logFC RUNX2 expression,[2],0.8924
same,logFC S1PR5 expression,[2],1.906
same,logFC SELENOV expression,[2],0.8135
same,logFC SEM1 expression,[2],0.5019
same,logFC SEPSECS expression,[2],0.7254
same,logFC SEPTIN10 expression,[2],0.7236
same,logFC SERPINE1 expression,[2],2.019
same,logFC SESN1 expression,[2],0.7238
same,logFC SFT2D1 expression,[2],0.6487
same,logFC SLC22A31 expression,[2],0.9625
same,logFC SLC47A1 expression,[2],2.056
same,logFC SPDL1 expression,[2],0.7492
same,logFC SPOCD1 expression,[2],1.33
same,logFC SPP1 expression,[2],1.215
same,logFC STIL expression,[2],0.759
same,logFC STX3 expression,[2],0.5017
same,logFC SWAP70 expression,[2],0.8869
same,logFC TAF4B expression,[2],0.9582
same,logFC TFPI2 expression,[2],1.367
same,logFC TGIF1 expression,[2],0.8371
same,logFC TM7SF3 expression,[2],0.5627
same,logFC TMTC1 expression,[2],1.156
same,logFC TNFRSF10D expression,[2],0.8463
same,logFC TNFRSF12A expression,[2],0.7449
same,logFC TOP2A expression,[2],0.7201
same,logFC TPM1 expression,[2],0.7857
same,logFC TRAM2 expression,[2],0.5417
same,logFC TRIAP1 expression,[2],0.7343
same,logFC TTK expression,[2],0.82
same,logFC UBE2C expression,[2],0.5692
same,logFC USP28 expression,[2],0.4989
same,logFC USP53 expression,[2],0.8262
same,logFC VRK1 expression,[2],0.7229
same,logFC VWDE expression,[2],1.176
same,logFC WEE1 expression,[2],1.13
same,logFC WNT9B expression,[2],0.5972
same,logFC WWC2 expression,[2],0.7083
same,logFC XPO1 expression,[2],0.7396
same,logFC YBX3 expression,[2],0.5165
same,logFC ZGRF1 expression,[2],0.9121
same,logFC ZIC2 expression,[2],0.7767
same,logFC ADAL expression,[3],0.3007
same,logFC ANKRD27 expression,[3],0.3035
same,logFC ARHGEF26 expression,[3],0.4633
same,logFC ATAD5 expression,[3],0.5442
same,logFC BAG4 expression,[3],0.4071
same,logFC CCDC150 expression,[3],0.6042
same,logFC CDH6 expression,[3],0.9224
same,logFC CHML expression,[3],0.4888
same,logFC DHFR expression,[3],0.5987
same,logFC DLX2 expression,[3],0.9412
same,logFC DMRTA1 expression,[3],0.858
same,logFC DNA2 expression,[3],0.5431
same,logFC EIF1AX expression,[3],0.5493
same,logFC F8 expression,[3],0.4608
same,logFC FBXO22 expression,[3],0.2957
same,logFC FREM2 expression,[3],0.865
same,logFC GPC3 expression,[3],1.257
same,logFC HAUS6 expression,[3],0.5025
same,logFC HLA-DMA expression,[3],0.9185
same,logFC ITGA6 expression,[3],0.5208

# From patent US20230094922A1, “METHODS OF THERAPEUTIC PROGNOSTICATION” (GENETIKAPLUS LTD., priority 2020, published 2023)
